# According to PubChem BioAssay (NCI):
#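 Following 48 hours of exposure in 96-well plates, responses at five concentrations were used to interpolate endpoints linearly. The concentration for 50% growth inhibition is given as GI50. TGI: concentration producing complete growth inhibition.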
# What was measured:
# Experiment in all cases: growth of human tumour cells (NCI), 48 h
# [1] = test system: SF-539 CNS
# [2] = test system: MOLT-4 leukemia
# [3] = test system: OVCAR-3 ovarian
# [4] = test system: OVCAR-8 ovarian
# [5] = test system: PC-3 prostate
# [6] = test system: SN12C renal
# [7] = test system: SK-MEL-2 melanoma
# [8] = test system: TK-10 renal
# [9] = test system: K-562 leukemia
# [10] = test system: HCT-116 colon
SMILES,GI50 [1] [µM],TGI [1] [µM],GI50 [2] [µM],TGI [2] [µM],GI50 [3] [µM],TGI [3] [µM],GI50 [4] [µM],TGI [4] [µM],GI50 [5] [µM],TGI [5] [µM],GI50 [6] [µM],TGI [6] [µM],GI50 [7] [µM],TGI [7] [µM],GI50 [8] [µM],TGI [8] [µM],GI50 [9] [µM],TGI [9] [µM],GI50 [10] [µM],TGI [10] [µM]
NC1CCN(Cc2ccccc2)CC1,2.27,6.21,> 100,> 100,> 100,> 100,> 100,> 100,> 100,> 100,> 100,> 100,> 100,> 100,> 100,> 100,> 100,> 100,> 100,> 100
O=C(/C=C/c1ccc[nH]1)c1ccc(-n2ccc(C(F)(F)F)n2)cc1,2.53,> 100,13.8,> 100,0.764,22.6,> 100,> 100,0.371,> 100,10.1,> 100,> 100,> 100,> 100,> 100,38.6,> 100,> 100,> 100
C/C(N=NC(=S)N1CC2CCC(CC2)C1)=C1\C=CC=CN1O,–,31,–,6.46,–,–,–,> 100,–,45.4,–,> 100,–,> 100,–,> 100,–,> 46.8,–,30.5
C#CC1/C(=C\C(=O)OC)CCCC1O (stereo unspecified),–,> 100,–,> 100,–,> 100,–,> 100,–,–,–,> 100,–,> 100,–,> 100,–,> 100,–,> 100
O=C(CC1C(=O)Nc2ccccc2S1=O)Nc1cc(Cl)ccc1Cl (stereo unspecified),–,> 100,–,> 100,–,> 100,–,> 100,–,–,–,> 100,–,> 100,–,> 100,–,> 100,–,> 100
CCC(C)(C)c1ccc(OCCCCNC(=O)c2ccc3ccccc3c2O)c(C(C)(C)CC)c1,–,> 100,–,> 100,–,73.2,–,> 100,–,49.7,–,> 100,–,62,–,80,–,> 100,–,> 100
CN1CCN(c2ccc(Nc3cc(-c4cccc(-n5ccc6cc(C7CC7)cc(F)c6c5=O)c4CO)cn(C)c3=O)nc2)CC1,1.82,3.63,3.73,19.1,3.12,8.8,4.84,29.7,8.93,25.2,3.35,13.9,15,35.1,3.69,14.3,3.17,12,3.31,18.9
CC12CCC(=O)C[C@H]1CCC(OC=O)C2Br (stereo partly specified),–,> 100,–,> 100,–,> 100,–,> 100,–,–,–,> 100,–,> 100,–,> 100,–,> 100,–,> 100
